Values after ≈ are worked out from the molar mass of the structure shown.

One assay relates to Escherichia coli ATCC 25922. Briefly: Minimal Inhibitory Concentration (MIC) determination, broth microdilution (CLSI M07-A10). Format: cell-based. Particulars: Escherichia coli, ATCC25922, strain Escherichia coli ATCC 25922, 18-24 hours at 35±2° C., lowest concentration for complete growth inhibition (no visible growth), read-out: Escherichia coli growth inhibition MIC. As for the experimental part: Minimal Inhibitory Concentration (MIC) Determination:
The MIC of antibacterial compounds against multiple species and strains was determined using the broth microdilution method according to M07-A10 Clinical and Laboratory Standards Institute (CLSI) guidelines, using the appropriate broth medium. In short, the compound plates were prepared by dispensing 100 μL of each stock solution in the first well of a 96 well microtiter plate (MTP) at a concentration 100-fold higher than the final concentration desired in broth. Eleven serial 2-fold dilutions of the highest concentration were made in DMSO for new compounds and in water (or appropriate solution) for reference compounds [2]. 1 μL of each well was transferred in a new MTP, which served as the test plate by subsequent inoculation. This bacterial suspension was prepared from strains that were first sub-cultured on agar plates and incubated for 18-24 hours as appropriate. Following incubation, the inoculum was prepared from isolated colonies and adjusted to 0.5 McFarland turbidity standard (1 to 2×10^8 Colony Forming Units (CFU)/mL) in 0.9% saline. The bacterial suspension was then diluted 1:200 in appropriate sterile medium and within 15 minutes 100 μL/well were dispensed. Negative controls (lack of bacterial cells) and growth control wells (lack of compound) were included in all plates. MTPs were incubated for 18-24 hours at 35±2° C. in ambient air. The MIC value of each compound, expressed as μg/mL, was determined as the lowest concentration required for complete growth inhibition (no visible growth). • [1] CLSI (2015) Methods for dilution antimicrobial susceptibility tests for bacteria that grow aerobically; Approved Standard, Tenth Edition. CLSI Document M7-A10 (ISBN 1-56238-987-4). Wayne, PA: Clinical and Laboratory Standards Institute, 19087, USA. • [2] CLSI (2017) Performance Standards for Antimicrobial Susceptibility Testing; Twenty-Fifth Informational Supplement. CLSI Document M100-S27, CLSI, Wayne, Pennsylvania 19087, USA.
Table 1 provides the Minimal Inhibitory Concentrations (MIC) in micrograms per millilitre of the compounds of present invention obtained against the strain Escherichia coli ATCC 25922.
For orientation: MIC means the least concentration at which growth counts as inhibited. On to `CNCc1nc2cc3c(c(F)c2[nH]1)CC(CN1CCC2(CC1)CN(c1cnc4c(n1)NC(=O)CO4)C(=O)O2)C3` (single isomer, unassigned) [Example 59, 6-[8-[[8-Fluoro-2-(methylaminomethyl)-1,5,6,7-tetrahydrocyclopenta[f]benzimidazol-6-yl]methyl]-2-oxo-1-oxa-3,8-diazaspiro[4.5]decan-3-yl]-4H-pyrazino[2,3-b][1,4]oxazin-3-one], for which the MIC was found to be 0.125 µg/mL (≈ 0.233 µM).
Still for that read-out and setting: in the case of `CNC(CO)c1nc2c(F)c3c(c(F)c2[nH]1)CC(CN1CCC2(CC1)CN(c1cnc4c(n1)NC(=O)CO4)C(=O)O2)C3` (single isomer, unassigned) [Example 66, 6-[8-[[4,8-Difluoro-2-[2-hydroxy-1-(methylamino)ethyl]-3,5,6,7-tetrahydrocyclopenta[f]benzimidazol-6-yl]methyl]-2-oxo-1-oxa-3,8-diazaspiro[4.5]decan-3-yl]-4H-pyrazino[2,3-b][1,4]oxazin-3-one] it was 0.25 µg/mL (≈ 0.428 µM); in that of `CNCc1nc2cc3c(c(F)c2o1)CC(CN1CCC2(CC1)CN(c1cnc4c(n1)NC(=O)CO4)C(=O)O2)C3` (single isomer, unassigned) [Example 95, 6-[8-[[8-fluoro-2-(methylaminomethyl)-6,7-dihydro-5H-cyclopenta[f][1,3]benzoxazol-6-yl]methyl]-2-keto-1-oxa-3,8-diazaspiro[4.5]decan-3-yl]-4H-pyrazino[2,3-b][1,4]oxazin-3-one], 0.25 µg/mL (≈ 0.465 µM); in that of `O=C1COc2ncc(N3CC4(CCN(CC5Cc6cc7nc(CN8CC(O)C8)oc7c(F)c6C5)CC4)OC3=O)nc2N1` (single isomer, unassigned) [Example 98, 6-[8-[[8-fluoro-2-[(3-hydroxyazetidin-1-yl)methyl]-6,7-dihydro-5H-cyclopenta[f][1,3]benzoxazol-6-yl]methyl]-2-oxo-1-oxa-3,8-diazaspiro[4.5]decan-3-yl]-4H-pyrazino[2,3-b][1,4]oxazin-3-one], 0.5 µg/mL (≈ 0.863 µM).
On the same count and under the same terms, in the case of `O=C1COc2ncc(N3CC4(CCN(CC5Cc6cc7nc(C8CNC8)oc7c(F)c6C5)CC4)OC3=O)nc2N1` (single isomer, unassigned) [Example 100, 6-[2-oxo-8-[[2-(azetidin-3-yl)-8-fluoro-6,7-dihydro-5H-cyclopenta[f][1,3]benzoxazol-6-yl]methyl]-1-oxa-3,8-diazaspiro[4.5]decan-3-yl]-4H-pyrazino[2,3-b][1,4]oxazin-3-one] it was 0.125 µg/mL (≈ 0.227 µM); in that of `NCc1nc2cc3c(c(F)c2o1)CC(CN1CCC2(CC1)CN(c1cnc4c(n1)NC(=O)CO4)C(=O)O2)C3` (single isomer, unassigned) [Example 104, 6-[2-oxo-8-[[2-(aminomethyl)-8-fluoro-6,7-dihydro-5H-cyclopenta[f][1,3]benzoxazol-6-yl]methyl]-1-oxa-3,8-diazaspiro[4.5]decan-3-yl]-4H-pyrazino[2,3-b][1,4]oxazin-3-one], 0.125 µg/mL (≈ 0.239 µM).

The assay is the same for the next values; noted with them: strain Escherichia coli ATCC 25922, 18-24 hours at 35±2° C., lowest concentration for complete growth inhibition (no visible growth).
As to `CNC(CO)c1nc2c(F)c3c(c(F)c2[nH]1)CC(CN1CCC2(CC1)CN(c1cnc4c(n1)NC(=O)CO4)C(=O)O2)C3` (single isomer, unassigned) [Example 67, 6-[8-[[4,8-Difluoro-2-[2-hydroxy-1-(methylamino)ethyl]-3,5,6,7-tetrahydrocyclopenta[f]benzimidazol-6-yl]methyl]-2-oxo-1-oxa-3,8-diazaspiro[4.5]decan-3-yl]-4H-pyrazino[2,3-b][1,4]oxazin-3-one], the “Escherichia coli growth inhibition MIC” value was 0.25 µg/mL.
On to `NCCn1nnc2cc3c(c(F)c21)CC(CN1CCC2(CC1)CN(c1cnc4c(n1)NC(=O)CO4)C(=O)O2)C3` (single isomer, unassigned) [Example 81, 6-[2-oxo-8-[[1-(2-aminoethyl)-8-fluoro-6,7-dihydro-5H-cyclopenta[f]benzotriazol-6-yl]methyl]-1-oxa-3,8-diazaspiro[4.5]decan-3-yl]-4H-pyrazino[2,3-b][1,4]oxazin-3-one], for which the “Escherichia coli growth inhibition MIC” value was at most 0.06 µg/mL.
With `NCCn1nnc2cc3c(c(F)c21)CC(CN1CCC2(CC1)CN(c1cnc4c(n1)NC(=O)CO4)C(=O)O2)C3` (single isomer, unassigned) [Example 82, 6-[2-oxo-8-[[1-(2-aminoethyl)-8-fluoro-6,7-dihydro-5H-cyclopenta[f]benzotriazol-6-yl]methyl]-1-oxa-3,8-diazaspiro[4.5]decan-3-yl]-4H-pyrazino[2,3-b][1,4]oxazin-3-one], the “Escherichia coli growth inhibition MIC” value worked out at 0.125 µg/mL.
On to `CNCCn1nc2cc(F)c3c(c2n1)CC(CN1CCC2(CC1)CN(c1cnc4c(n1)NC(=O)CO4)C(=O)O2)C3` (single isomer, unassigned) [Example 86, 6-[8-[[5-fluoro-2-[2-(methylamino)ethyl]-7.8-dihydro-6H-cyclopenta[e]benzotriazol-7-yl]methyl]-2-oxo-1-oxa-3,8-diazaspiro[4.5]decan-3-yl]-4H-pyrazino[2,3-b][1,4]oxazin-3-one], for which the “Escherichia coli growth inhibition MIC” value is at most 0.06 µg/mL.
On to `CNCCn1nc2cc(F)c3c(c2n1)CC(CN1CCC2(CC1)CN(c1cnc4c(n1)NC(=O)CO4)C(=O)O2)C3` (single isomer, unassigned) [Example 87, 6-[8-[[5-fluoro-2-[2-(methylamino)ethyl]-7,8-dihydro-6H-cyclopenta[e]benzotriazol-7-yl]methyl]-2-oxo-1-oxa-3,8-diazaspiro[4.5]decan-3-yl]-4H-pyrazino[2,3-b][1,4]oxazin-3-one], for which the “Escherichia coli growth inhibition MIC” value amounted to 0.125 µg/mL.
On the same count and under the same terms, then `C[C@H](N)Cn1nc2cc(F)c3c(c2n1)CC(CN1CCC2(CC1)CN(c1cnc4c(n1)NC(=O)CO4)C(=O)O2)C3` (single isomer, unassigned) [Example 88], with at most 0.06 µg/mL; and `C[C@H](N)Cn1nc2cc(F)c3c(c2n1)CC(CN1CCC2(CC1)CN(c1cnc4c(n1)NC(=O)CO4)C(=O)O2)C3` (single isomer, unassigned) [Example 89], with 0.125 µg/mL.
`CNCc1nc2cc3c(c(F)c2o1)CC(CN1CCC2(CC1)CN(c1cnc4c(n1)NC(=O)CO4)C(=O)O2)C3` (single isomer, unassigned) [Example 94, 6-[8-[[8-fluoro-2-(methylaminomethyl)-6,7-dihydro-5H-cyclopenta[f][1,3]benzoxazol-6-yl]methyl]-2-keto-1-oxa-3,8-diazaspiro[4.5]decan-3-yl]-4H-pyrazino[2,3-b][1,4]oxazin-3-one]: the “Escherichia coli growth inhibition MIC” value is 0.25 µg/mL.
For `O=C1COc2ncc(N3CC4(CCN(CC5Cc6cc7nc(CN8CC(O)C8)oc7c(F)c6C5)CC4)OC3=O)nc2N1` (single isomer, unassigned) [Example 99, 6-[8-[[8-fluoro-2-[(3-hydroxyazetidin-1-yl)methyl]-6,7-dihydro-5H-cyclopenta[f][1,3]benzoxazol-6-yl]methyl]-2-oxo-1-oxa-3,8-diazaspiro[4.5]decan-3-yl]-4H-pyrazino[2,3-b][1,4]oxazin-3-one], the “Escherichia coli growth inhibition MIC” value was 1 µg/mL.
As to `O=C1COc2ncc(N3CC4(CCN(CC5Cc6cc7nc(C8CNC8)oc7c(F)c6C5)CC4)OC3=O)nc2N1` (single isomer, unassigned) [Example 101, 6-[2-oxo-8-[[2-(azetidin-3-yl)-8-fluoro-6,7-dihydro-5H-cyclopenta[f][1,3]benzoxazol-6-yl]methyl]-1-oxa-3,8-diazaspiro[4.5]decan-3-yl]-4H-pyrazino[2,3-b][1,4]oxazin-3-one], the “Escherichia coli growth inhibition MIC” value came to 0.25 µg/mL.
`NCCc1nc2cc3c(c(F)c2o1)CC(CN1CCC2(CC1)CN(c1cnc4c(n1)NC(=O)CO4)C(=O)O2)C3` (single isomer, unassigned) [Example 102, 6-[8-[[2-(2-aminoethyl)-8-fluoro-6,7-dihydro-5H-cyclopenta[f][1,3]benzoxazol-6-yl]methyl]-2-oxo-1-oxa-3,8-diazaspiro[4.5]decan-3-yl]-4H-pyrazino[2,3-b][1,4]oxazin-3-one]: the “Escherichia coli growth inhibition MIC” value stood at 0.125 µg/mL.
For the compound `NCCc1nc2cc3c(c(F)c2o1)CC(CN1CCC2(CC1)CN(c1cnc4c(n1)NC(=O)CO4)C(=O)O2)C3` (single isomer, unassigned) [Example 103, 6-[8-[[2-(2-aminoethyl)-8-fluoro-6,7-dihydro-5H-cyclopenta[f][1,3]benzoxazol-6-yl]methyl]-2-oxo-1-oxa-3,8-diazaspiro[4.5]decan-3-yl]-4H-pyrazino[2,3-b][1,4]oxazin-3-one], the “Escherichia coli growth inhibition MIC” value is at most 0.06 µg/mL.

For the origin of these results see patent US20240252506A1 (Hoffmann-La Roche Inc., priority 2021, published 2024).
